Assay results taken from patent US20130065922A1, “NOVEL AMIDES AS FUNGICIDES” (priority 2010, published 2013).
Where two headings read alike, the source gives them in different places.

Tests used:
[1] = system: Phytophthora infestans; experiment: whole plant or invertebrate; type: in vivo; conditions: in Solanum lycopersicum, foliar, read-out: inhibit fungal infestation
[2] = system: Plasmopara viticola; experiment: whole plant or invertebrate; type: in vivo; conditions: foliar, read-out: inhibit fungal infestation
[3] = system: Blumeria graminis f. Sp. tritici (Erysiphe graminis f. Sp. tritici); experiment: Blumeria graminis f. Sp. tritici (Erysiphe graminis f. Sp. tritici)/Wheat/Leaf Disc Preventative (Powdery Mildew on Wheat); type: in vivo; conditions: foliar, read-out: inhibit fungal infestation
[4] = system: Pythium ultimum; experiment: Pythium ultimum/Liquid Culture (Seedling Damping Off); type: cell-based; conditions: Globisporangium ultimum, read-out: inhibit fungal infestation
[5] = system: Phaeosphaeria nodorum (Septoria nodorum); experiment: Phaeosphaeria nodorum (Septoria nodorum)/Wheat/Leaf Disc Preventative (Glume Blotch); type: in vivo; conditions: Parastagonospora nodorum, foliar, read-out: inhibit fungal infestation
[6] = 200 ppm, wheat leaf segments cv. Kanzler, preventative, 6-8 days after application, untreated control infected to over 80%
[7] = 200 ppm, wheat leaf segments cv. Kanzler, preventative, 5-7 days after application, untreated control infected to over 80%
[8] = 200 ppm, liquid culture (PDB), 24° C., growth inhibition photometrically 2-3 days after application

Structure (SMILES)	inhibition at 200 ppm [1]	inhibition at 200 ppm [2]	inhibition at 200 ppm [3]	inhibition at 200 ppm [4]	melting point	inhibition at 200 ppm [3, 6]	inhibition at 200 ppm [5, 7]	inhibition at 200 ppm [4, 8]	inhibition at 200 ppm [5]
COCC#CC(C)(C)NC(=O)C(Oc1ccc2ncc(OC)cc2c1)SC (stereo not shown) [Compound 4, N-(4-Methoxy-1,1-dimethyl-but-2-ynyl)-2-(3-methoxy-quinolin-6-yloxy)-2-methylsulfanyl-acetamide]	≥ 80%	≥ 80%	≥ 80%	≥ 80%	95 to 98 °C	–	–	–	–
C#CC(C)(COC)NC(=O)C(Oc1ccc2ncc(OC)cc2c1)SC (stereo not shown) [Compound 5, N-(1-Methoxymethyl-1-methyl-prop-2-ynyl)-2-(3-methoxy-quinolin-6-yloxy)-2-methylsulfanyl-acetamide]	≥ 80%	≥ 80%	–	–	112 to 118 °C	≥ 80%	≥ 80%	≥ 80%	–
C#CC(C)(C)NC(=O)C(Oc1ccc2ncc(OC)cc2c1)SC (stereo not shown) [Compound 10, N-(1,1-Dimethyl-prop-2-ynyl)-2-(3-methoxy-quinolin-6-yloxy)-2-methylsulfanyl-acetamide]	≥ 80%	≥ 80%	–	–	152 to 154 °C	≥ 80%	≥ 80%	≥ 80%	–
CC#CC(C)(C)NC(=O)C(Oc1ccc2ncc(OC)cc2c1)SC (stereo not shown) [Compound 11, N-(1,1-Dimethyl-but-2-ynyl)-2-(3-methoxy-quinolin-6-yloxy)-2-methylsulfanyl-acetamide]	≥ 80%	≥ 80%	≥ 80%	≥ 80%	137 to 139 °C	–	–	–	≥ 80%
CC#CC(C)(C)NC(=O)C(Oc1cc(Cl)c2ncc(OC)cc2c1)SC (stereo not shown) [Compound 14, 2-(8-Chloro-3-methoxy-quinolin-6-yloxy)-N-(1,1-dimethyl-but-2-ynyl)-2-methylsulfanyl-acetamide]	≥ 80%	≥ 80%	≥ 80%	≥ 80%	133 to 136 °C	–	–	–	≥ 80%
COc1cnc2c(C)cc(OC(SC)C(=O)NC(C)(C)C)cc2c1 (stereo not shown) [Compound 16, N-tert-Butyl-2-(3-methoxy-8-methyl-quinolin-6-yloxy)-2-methylsulfanyl-acetamide]	≥ 80%	–	–	–	147 to 150 °C	≥ 80%	≥ 80%	≥ 80%	–
COCC(C)(C#N)NC(=O)C(Oc1cc(C)c2ncc(OC)cc2c1)SC (stereo not shown) [Compound 18, N-(1-Cyano-2-methoxy-1-methyl-ethyl)-2-(3-methoxy-8-methyl-quinolin-6-yloxy)-2-methylsulfanyl-acetamide]	≥ 80%	≥ 80%	–	–	123 to 129 °C	≥ 80%	–	≥ 80%	–
C#CC(C)(C#C)NC(=O)C(Oc1cc(C)c2ncc(OCC)cc2c1)SC (stereo not shown) [Compound 23, 2-(3-Ethoxy-8-methyl-quinolin-6-yloxy)-N-(1-ethynyl-1-methyl-prop-2-ynyl)-2-methylsulfanyl-acetamide]	–	≥ 80%	–	–	143 to 145 °C	≥ 80%	≥ 80%	≥ 80%	–
C#CC(C)(C)NC(=O)C(Oc1cc(C)c2ncc(OCC)cc2c1)SC (stereo not shown) [Compound 25, N-(1,1-Dimethyl-prop-2-ynyl)-2-(3-ethoxy-8-methyl-quinolin-6-yloxy)-2-methylsulfanyl-acetamide]	–	≥ 80%	–	–	160 to 162 °C	≥ 80%	≥ 80%	≥ 80%	–
CCOc1cnc2ccc(OC(SC)C(=O)NC(C)(C)C)cc2c1 (stereo not shown) [Compound 26, N-tert-Butyl-2-(3-ethoxy-quinolin-6-yloxy)-2-methylsulfanyl-acetamide]	–	–	–	–	120 to 123 °C	≥ 80%	≥ 80%	≥ 80%	–
C#CC(C)(C)NC(=O)C(CC)Oc1ccc2ncc(SC)cc2c1 (stereo not shown) [Compound 29, N-(1,1-Dimethyl-prop-2-ynyl)-2-(3-methylsulfanyl-quinolin-6-yloxy)-butyramide]	≥ 80%	≥ 80%	–	–	121 to 123 °C	≥ 80%	–	≥ 80%	–
CCC(Oc1ccc2ncc(SC)cc2c1)C(=O)NC(C)(C)C (stereo not shown) [Compound 30, N-tert-Butyl-2-(3-methylsulfanyl-quinolin-6-yloxy)-butyramide]	≥ 80%	≥ 80%	–	–	113 to 115 °C	≥ 80%	–	≥ 80%	–
C#CC(C)(C)NC(=O)C(Oc1cc(Cl)c2ncc(SC)cc2c1)SC (stereo not shown) [Compound 32, 2-(8-Chloro-3-methylsulfanyl-quinolin-6-yloxy)-N-(1,1-dimethyl-prop-2-ynyl)-2-methylsulfanyl-acetamide]	≥ 80%	≥ 80%	–	–	157 to 159 °C	–	–	≥ 80%	–
CC#CC(C)(C)NC(=O)C(Oc1cc(Cl)c2ncc(SC)cc2c1)SC (stereo not shown) [Compound 33, 2-(8-Chloro-3-methylsulfanyl-quinolin-6-yloxy)-N-(1,1-dimethyl-but-2-ynyl)-2-methylsulfanyl-acetamide]	≥ 80%	≥ 80%	–	≥ 80%	153 to 155 °C	–	–	–	–
C#CC(C)(C)NC(=O)C(CC)Oc1cc(C)c2ncc(SC)cc2c1 (stereo not shown) [Compound 37, N-(1,1-Dimethyl-prop-2-ynyl)-2-(8-methyl-3-methylsulfanyl-quinolin-6-yloxy)-butyramide]	–	≥ 80%	–	–	134 to 136 °C	–	≥ 80%	≥ 80%	–
C#CC(C)(C=C)NC(=O)C(Oc1ccc2ncc(SC)cc2c1)SC (stereo not shown) [Compound 63, N-(1-Ethynyl-1-methyl-allyl)-2-methylsulfanyl-2-(3-methylsulfanyl-quinolin-6-yloxy)-acetamide]	≥ 80%	≥ 80%	–	–	121 to 123 °C	–	–	≥ 80%	–
CCSc1cnc2ccc(OC(SC)C(=O)NC(C)(C)/C=N/OC)cc2c1 (stereo not shown) [Compound 64, 2-(3-Ethylsulfanyl-quinolin-6-yloxy)-N-(2-methoxyimino-1,1-dimethyl-ethyl)-2-methylsulfanyl-acetamide]	≥ 80%	≥ 80%	–	–	105 to 107 °C	≥ 80%	–	≥ 80%	–
CSc1cnc2ccc(OC(SC)C(=O)NC(C)(C#N)C3CC3)cc2c1 (stereo not shown) [Compound 65, N-(Cyano-cyclopropyl-methyl-methyl)-2-methylsulfanyl-2-(3-methyl-sulfanyl-quinolin-6-yloxy)-acetamide]	≥ 80%	≥ 80%	–	–	–	–	≥ 80%	≥ 80%	–
CSc1cnc2ccc(OC(SC)C(=O)NC(C)(C)C#N)cc2c1 (stereo not shown) [Compound 68, N-(Cyano-dimethyl-methyl)-2-methylsulfanyl-2-(3-methylsulfanyl-quinolin-6-yloxy)-acetamide]	≥ 80%	≥ 80%	–	–	–	–	–	≥ 80%	–
